Measurements: the supplement of paper PMC11451515

Tested on: P12-Ichikawa
Assay: cell viability relative to DMSO control; higher = less cytotoxic
Details: 48 h
Outline: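 Leukemia cells (NOMO1 or SEM, 500 cells/well; P12-Ichikawa, 1000 cells/well) were seeded in 5 μl in 1536-well plates after at least four passages of adaptation to each medium. They received library compounds in DMSO by pin dosing, 11 threefold points from 47 μM to 0.79 nM. Luminescence with CellTiter-Glo One was read after 48 h at 37°C. Viability is stated per plate relative to DMSO wells, with cell-free wells as background.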

[1] = HPLM + 10% dialyzed FBS, 0.000781 µM
[2] = HPLM + 10% dialyzed FBS, 0.00234 µM
[3] = HPLM + 10% dialyzed FBS, 0.00702 µM
[4] = HPLM + 10% dialyzed FBS, 0.0211 µM
[5] = HPLM + 10% dialyzed FBS, 0.0632 µM
[6] = HPLM + 10% dialyzed FBS, 0.19 µM
[7] = HPLM + 10% dialyzed FBS, 0.569 µM
[8] = HPLM + 10% dialyzed FBS, 1.71 µM
[9] = HPLM + 10% dialyzed FBS, 5.12 µM
[10] = HPLM + 10% dialyzed FBS, 15.4 µM
[11] = HPLM + 10% dialyzed FBS, 46.1 µM
[12] = RPMI 5 mM glucose + 10% FBS, 0.000781 µM
[13] = RPMI 5 mM glucose + 10% FBS, 0.00234 µM
[14] = RPMI 5 mM glucose + 10% FBS, 0.00702 µM
[15] = RPMI 5 mM glucose + 10% FBS, 0.0211 µM
[16] = RPMI 5 mM glucose + 10% FBS, 0.0632 µM
[17] = RPMI 5 mM glucose + 10% FBS, 0.19 µM
[18] = RPMI 5 mM glucose + 10% FBS, 0.569 µM
[19] = RPMI 5 mM glucose + 10% FBS, 1.71 µM
[20] = RPMI 5 mM glucose + 10% FBS, 5.12 µM
[21] = RPMI 5 mM glucose + 10% FBS, 15.4 µM
[22] = RPMI 5 mM glucose + 10% FBS, 46.1 µM
[23] = RPMI 5 mM glucose + 10% dialyzed FBS, 0.000781 µM
[24] = RPMI 5 mM glucose + 10% dialyzed FBS, 0.00234 µM
[25] = RPMI 5 mM glucose + 10% dialyzed FBS, 0.00702 µM
[26] = RPMI 5 mM glucose + 10% dialyzed FBS, 0.0211 µM
[27] = RPMI 5 mM glucose + 10% dialyzed FBS, 0.0632 µM
[28] = RPMI 5 mM glucose + 10% dialyzed FBS, 0.19 µM
[29] = RPMI 5 mM glucose + 10% dialyzed FBS, 0.569 µM
[30] = RPMI 5 mM glucose + 10% dialyzed FBS, 1.71 µM
[31] = RPMI 5 mM glucose + 10% dialyzed FBS, 5.12 µM
[32] = RPMI 5 mM glucose + 10% dialyzed FBS, 15.4 µM
[33] = RPMI 5 mM glucose + 10% dialyzed FBS, 46.1 µM

Structure (SMILES)	cell viability [1] [%]	cell viability [2] [%]	cell viability [3] [%]	cell viability [4] [%]	cell viability [5] [%]	cell viability [6] [%]	cell viability [7] [%]	cell viability [8] [%]	cell viability [9] [%]	cell viability [10] [%]	cell viability [11] [%]	cell viability [12] [%]	cell viability [13] [%]	cell viability [14] [%]	cell viability [15] [%]	cell viability [16] [%]	cell viability [17] [%]	cell viability [18] [%]	cell viability [19] [%]	cell viability [20] [%]	cell viability [21] [%]	cell viability [22] [%]	cell viability [23] [%]	cell viability [24] [%]	cell viability [25] [%]	cell viability [26] [%]	cell viability [27] [%]	cell viability [28] [%]	cell viability [29] [%]	cell viability [30] [%]	cell viability [31] [%]	cell viability [32] [%]	cell viability [33] [%]
CC(=O)O[C@H]1C(=O)[C@]2(C)[C@@H](O)C[C@H]3OC[C@@]3(OC(C)=O)C2[C@H](OC(=O)C4=CC=CC=C4)[C@]5(O)C[C@H](OC(=O)[C@H](O)[C@@H](NC(=O)C6=CC=CC=C6)C7=CC=CC=C7)\C(=C1/C5(C)C)C (some centres undefined)	93.3	42.1	35.2	27.6	31.9	27.8	25.7	27.1	25	19.1	15.3	88.3	48	34.3	24	26.1	24.8	27.8	23	26	19.3	14.3	95.8	58.3	41.4	31.5	37.7	39.7	35.9	38.8	37.7	31.9	25.9
CO[C@H]1/C=C/O[C@@]2(C)Oc3c(C)c(O)c4c(O)c(c5c(nc6cc(C)ccn65)c4c3C2=O)NC(=O)/C(C)=C\C=C\[C@H](C)[C@H](O)[C@@H](C)[C@@H](O)[C@@H](C)[C@H](OC(C)=O)[C@@H]1C	108	98.3	107	106	107	106	104	102	50.2	89.4	9.34	103	103	113	102	114	101	94.1	103	46.5	72.8	35.1	105	100	101	99.9	101	97.7	102	92.9	41.8	77.3	33.7
CC(=O)N(C)c1cccc(-c2ccnc3c(C(=O)c4cccs4)cnn23)c1	103	115	109	101	108	110	99.8	120	103	99.3	94.5	106	96.8	88.5	80.9	102	101	107	90.5	95.8	88.1	90.2	105	98.7	105	88	93.9	103	107	89.7	95	90.3	92
C[C@](O)(COc1ccc(C#N)cc1)C(=O)Nc1ccc(C#N)c(C(F)(F)F)c1	85.2	81.8	93	94.8	99.2	93.2	102	93.9	89.7	94.6	95.3	77.6	84.4	84.3	94.1	83.8	92.2	89	86.7	83.9	91	80.5	80.9	82.6	78.6	81.6	83.6	76.1	82.4	80.7	77.5	82.1	68.8
O=NN(CCCl)C(=O)NC1CCCCC1	102	106	107	96.4	107	107	112	111	111	103	105	102	96.5	97.1	97.3	116	113	104	97.2	112	107	111	97.4	105	105	102	113	108	105	110	105	103	113
COc1ccc(Cc2ccc(NC(N)=O)cc2)cc1-c1cccc(Cl)c1	112	115	127	121	118	118	123	124	126	122	116	114	134	122	131	130	127	117	130	149	132	124	110	120	113	111	117	119	115	131	121	124	113
O=C([O-])C(O)Cc1ccc(O)c(O)c1 (centres undefined)	109	107	99.1	110	111	106	104	93.7	95.7	90.2	90.1	101	96.6	107	99.6	99.4	98.3	92.6	90.2	99.9	81.8	83.3	95	99.2	99.9	95.5	92.3	96.8	93.2	87.9	89	74.6	83.5
C[C@@H](NC1=CC=CC=C1C(O)=O)C/2=C/C(=C\N3C(=O)/C=C(\N=C23)N4CCOCC4)C	87.2	87	101	94.1	95.9	93.2	97.1	89.3	75	60.5	39.9	82.4	78.7	83.5	97.1	92.1	84.7	85.7	72.2	59.2	47.9	27.6	77.7	85.3	93.1	92.9	90.5	88.4	80	87.4	61.9	46.3	33.1
COc1cc2nc(N(C)CCCNC(=O)C3CCCO3)nc(N)c2cc1OC (centres undefined)	78.4	88.7	80.9	92.3	88.8	87.6	86.2	82.3	88.3	92.6	94.1	82.3	87.4	89.9	91	92.6	91.3	84.6	87.8	91.6	93.9	101	70.4	81.7	76.8	78.9	82.9	83.4	79.5	82.7	76.6	87.8	80.7
N=C(CCSCc1csc(N=C(N)N)n1)N[S+](N)(=O)[O-]	95.2	102	103	95.7	108	98.2	106	103	106	108	102	93.1	97.4	97.3	94	96.2	93.2	97.6	95.3	95.3	87.3	99.1	80.3	89.1	98.3	91	95.1	94.9	95	88.7	93.5	87.1	83.2
Cc1cn2c(-c3cn[nH]c3)cnc2c(Nc2ccc(C(=O)N3CCNCC3)cc2F)n1	98.2	104	100	99.8	101	103	104	97.7	91.9	73.4	43.5	105	98.3	95.7	91.8	103	96.8	95.1	96.9	90.4	74.6	49.2	104	105	102	99.5	105	107	109	95.6	94.4	65.3	42.5
Nc1ccccc1NC(=O)c1ccc(CNC(=O)OCc2cccnc2)cc1	111	118	110	113	105	107	98.4	73.4	20	5.58	4.41	106	112	108	122	108	102	113	71.6	27.8	4.9	3.42	109	111	108	113	114	113	99.6	69.1	21.4	5.4	3.96
C[C@H]1[C@H](NC(=O)/C(=N/OC(C)(C)C(=O)O)c2csc(N)n2)C(=O)N1[S+](=O)([O-])O	108	116	109	102	106	117	111	105	109	95.3	103	99.3	102	97.1	102	101	106	101	110	98.4	93.4	97.3	81.3	101	101	102	110	102	101	93.8	93.3	99.4	92.3
